From PMC10046907 (Current Issues in Molecular Biology, 2023) come the findings set out here.

Data set [1] concerns the target neuraminidase from A/PR/8/34 (H1N1) (Influenza A virus, UniProt P03468). Kind of data set: biochemical. Also noted: species or system influenza A viruses.
Data set [2] has as its target neuraminidase from A/Chicken/Korea/MS96/96 (H9N2) (Influenza A virus (A/Chicken/Korea/MS96/96(H9N2)), UniProt Q9J458). The class given is biochemical, influenza A viruses. Conditions: read-out: Neuraminiase IC50.
The subject of data set [3] is influenza vRNA (M gene). It counts as cell-based, influenza virus. Particulars: 20 μM, all virus strains, at 12 and 18 h, vs infected/untreated cells (0.5% DMSO).
The subject of data set [4] is influenza vRNA (NP gene). The class given is cell-based, influenza virus.
The test system of data set [5] is p-Akt (Serine 473). Put plainly: Western blot of p-Akt in influenza-infected MDCK cells. Conditions: 20 μM, after viral infection, vs viral-infected/untreated cells. The class given is cell-based, canine. On the technique in general: A western blot detects proteins with antibodies after separation by electrophoresis.
In data set [6] the test system is influenza virus NS1. The class given is cell-based.
The subject of data set [7] is influenza RNP export from the nucleus to the cytoplasm. Kind of data set: Confocal fluorescence imaging of influenza RNP nuclear export. Conditions: 20 μM, H1N1-infected MDCK cells, 10 h. It counts as cell-based, influenza virus (H1N1). The method, then: MDCK cells were grown on a chamber slide, pre-coated with poly-L-lysine, and the monolayers were infected with influenza virus at 0.001 MOI for 1 h. The virus was removed and replaced by EMEM containing 10 μg/mL trypsin and each compound under test. All cells were cultured for 10 h at 37 °C in a 5% CO2 atmosphere and fixed in 4% paraformaldehyde solution for 15 min at room temperature. After washing, the cells were incubated at 37 °C for 1 h with an FITC-conjugated nucleoprotein (NP)-specific monoclonal antibody against influenza virus (Millipore, MA, USA) diluted at 1:50. After washing with PBS, cells were counterstained with 500 nM propidium iodide solution. Slides were mounted using the SlowFade Gold antifade reagent (Invitrogen, CA, USA). Confocal fluorescence imaging was performed using the Carl Zeiss LSM 510 META confocal microscope (Carl Zeiss Inc., Jena, Germany).
Figure 3 18-Hydroxyferruginol (1) and 18-oxoferruginol (2) inhibit the export of the influenza virus RNP complex from the nucleus to the cytoplasm. MDCK cells were infected with H1N1 at 0.001 MOI in the presence of 0.5% DMSO, 50 μM LY294002, 20 μM 18-hydroxyferruginol (1), or 20 μM 18-oxoferruginol (2). After 10 h, the cells were fixed in 4% paraformaldehyde. After blocking, the cells were incubated with the anti-NP antibody (green). Propidium iodide was used as a nuclear counterstain (red). Scale bar = 10 µm.

In data set [8] the test system is ERK phosphorylation. Put plainly: Western blot of p-ERK in influenza-infected MDCK cells. The class given is cell-based, canine. Particulars: 10 h; for viral-infection-induced ERK phosphorylation: 20 μM.
For data set [9], the system named is phosphorylation of MEK1/2. Kind of data set: Western blot of p-MEK1/2 in influenza-infected MDCK cells. Conditions: 20 μM, 10 h, all strains. It counts as cell-based, canine.
For data set [10], the system named is influenza virus NP. The class given is cell-based.
Data set [11] concerns MDCK cells.
Data set [12] has as its system A/PR/8/34 (H1N1). Particulars: dog.
Data set [13] has as its system A/Chicken/Korea/MS96/96 (H9N2). Conditions: dog.
Data set [14] is described as follows: in vitro. Particulars: dog.
The test system of data set [15] is A/PR/8/34 (H1N1). Kind of data set: in vitro. Particulars: dog, SI (selective index, CC50/IC50).
Data set [16] deals with A/Chicken/Korea/MS96/96 (H9N2). Kind of data set: in vitro. Conditions: dog, SI (selective index, CC50/IC50).
In data set [17] the test system is A/PR/8/34 (H1N1). Kind of data set: microbe, parasite or virus in culture. Conditions: Influenza A virus, MDCK, 72 h.
Data set [18] relates to A/Chicken/Korea/MS96/96 (H9N2). Put plainly: microbe, parasite or virus in culture. Conditions: Influenza A virus, H9N2, MDCK, in Gallus gallus, 72 h.
Data set [19] deals with A/Hong Kong/8/68 (H3N2). Particulars: dog.
In data set [20] the test system is A/Hong Kong/8/68 (H3N2). Kind of data set: in vitro. Particulars: dog, SI (selective index, CC50/IC50).
Data set [21] relates to A/Hong Kong/8/68 (H3N2). Put plainly: microbe, parasite or virus in culture. Conditions: Influenza A virus, H3N2, MDCK, 72 h.
The mark [22] stands for this setting: 20 μM, all three strains, 10 h after infection.

The IC50 is the concentration that inhibits the measured activity by half.

Where two headings read alike, the source gives them in different places. Where only a bound is given, the exact number is not on record here.

neuraminidase from A/PR/8/34 (H1N1), sequence (P03468 whole entry, looked up): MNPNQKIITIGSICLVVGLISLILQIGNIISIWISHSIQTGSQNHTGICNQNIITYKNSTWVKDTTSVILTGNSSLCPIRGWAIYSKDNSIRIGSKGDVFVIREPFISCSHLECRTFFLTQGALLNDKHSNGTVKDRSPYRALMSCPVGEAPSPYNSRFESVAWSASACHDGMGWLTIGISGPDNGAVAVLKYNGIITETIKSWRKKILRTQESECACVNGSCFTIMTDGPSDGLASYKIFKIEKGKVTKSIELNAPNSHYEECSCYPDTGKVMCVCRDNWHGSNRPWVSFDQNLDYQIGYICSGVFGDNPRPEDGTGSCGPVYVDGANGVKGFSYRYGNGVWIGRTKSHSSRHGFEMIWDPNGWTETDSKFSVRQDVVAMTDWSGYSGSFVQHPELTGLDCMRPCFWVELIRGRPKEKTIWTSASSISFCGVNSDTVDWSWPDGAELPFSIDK

For `CC(C)c1cc2c(cc1O)[C@@]1(C)CCC[C@@](C)(CO)[C@@H]1CC2` [Compound 1, 18-hydroxyferruginol], the IC50 in [1] is over 100 µM; in [2], 82.2 µM; in [17], 13.6 ± 1.4 µM; in data set [18] it was 12.8 ± 0.1 µM. For the same compound, in data set [3], the “decrease of influenza vRNA levels (M gene)” value was 65.3–91.6%. In data set [4] (setting [22]), the “reduction of influenza vRNA levels (NP gene)” value (“reduction” below) is reported as 2–2.5 fold. For the same compound, in [5], the p-Akt levels entry was “decreased p-Akt levels”. For the same compound, in [6], the “accumulation of viral protein NS1” value is reported as “markedly decreased”. Besides, the “influenza RNP export from the nucleus to the cytoplasm” value in [7] was “reduction in influenza RNP export from the nucleus to the cytoplasm”. Moreover, the “viral-infection-induced ERK phosphorylation” value in data set [8] is reported as “inhibited viral-infection-induced ERK phosphorylation”. Moreover, the “phosphorylation of MEK1/2 induced by infection” value in data set [9] is “inhibited”. Besides, in [10], the “levels of influenza virus NP” value was “reduction in the levels of influenza virus NP”. Also, the “toxic effect on MDCK cells” value in [11] is “no toxic effect”. Moreover, the “SI (selective index, CC50/IC50)” value in data set [12] is 2.61; in data set [13], 2.77. The compound also came in with a CC50 in data set [14] of 35.5 ± 0.4 µM. The values for the selectivity ratio in data set [15] and in [16] were 1.68 and 1.79, respectively.
In the case of `CC(C)c1cc2c(cc1O)[C@@]1(C)CCC[C@@](C)(C=O)[C@@H]1CC2` [Compound 2, 18-oxoferruginol], the IC50 was over 100 µM in data set [1]; over 100 µM in [2]; 18.3 ± 6.5 µM in [17]; 10.8 ± 2.2 µM in [18]; 29.2 ± 1.9 µM in data set [21]. Moreover, the “decrease of influenza vRNA levels (M gene)” value in [3] was 60.7–92.4%. Also, in data set [4] (setting [22]), the “reduction” value is 2–3 fold. Moreover, the p-Akt levels entry in data set [5] is recorded as “decreased p-Akt levels”. Besides, the “accumulation of viral protein NS1” value in [6] was “markedly decreased”. The “influenza RNP export from the nucleus to the cytoplasm” value in [7] was “reduction in influenza RNP export from the nucleus to the cytoplasm”. For the same compound, the “viral-infection-induced ERK phosphorylation” value in data set [8] is listed as “inhibited viral-infection-induced ERK phosphorylation”. Besides, the “phosphorylation of MEK1/2 induced by infection” value in [9] was “inhibited”. For the same compound, in data set [10], the “levels of influenza virus NP” value is on record as “reduction in the levels of influenza virus NP”. For the same compound, the “toxic effect on MDCK cells” value in [11] is “no toxic effect”. Besides, the “SI (selective index, CC50/IC50)” value in [12] is recorded as 2.25; in data set [13], 3.81; in data set [19], 1.41. In data set [14], this compound gave a CC50 of 41.2 ± 1.5 µM. Further, the selectivity ratio was 2.13 in [15], 3.6 in data set [16] and 1.33 in [20].
Regarding `O=c1cc(N2CCOCC2)oc2c(-c3ccccc3)cccc12` [LY294002, reference compound], in data set [4] (50 μM, all three strains, 10 h after infection), the “reduction” value was 3.3–5.2 fold. Moreover, in data set [8] (50 μM), the ERK phosphorylation entry is “strongly inhibited ERK phosphorylation”.
In the case of `CCOC(=O)C1=C[C@@H](OC(CC)CC)[C@H](NC(C)=O)[C@@H](N)C1` [Olseltamivir, oseltamivir, reference compound], the CC50 in data set [14] is over 500 µM. For the same compound, the results for the IC50 in data set [17], in data set [18] and in data set [21] were 1.35 ± 1.2 µM, under 0.7 µM and 1.09 ± 0.5 µM, respectively.
Turning to `COc1cccc(-c2cc(=O)c3ccccc3o2)c1N` [PD98059, reference compound], the “reduction” value in data set [4] was 4.3–9.1 fold.
